Entries after “also recorded” stand apart in the source; their conditions may differ.
What was measured:
Type in all cases: cell-based
[1] = test system: Primary human colonic epithelial cells (HCoEpiC); test: Long-term culture of primary human colonic epithelial cells in the presence of low molecular weight compounds (cell number, morphology); details: for cell morphology during long-term culture: 10 μM Y-27632 solely added, after 72 days of culture; for continued growth / long-term culture of colorectal epithelial cells (number of cells): complete medium with 10 μM Y-27632 solely added, culture continued for 72 days, compared with A, C, YA, YC groups
Method: Regarding Primary human colonic epithelial cells (HCoEpiC), Lot No. 17030 was purchased from ScienCell Research Laboratories, Inc. (SCR, Carlsbad, CA, United States) and used. A complete medium containing 5 mL of a colonic epithelial cell growth supplement (CoEpiCGS, SCR) and 5 mL of penicillin/streptomycin (P/S, SCR) added to 500 mL of a colonic epithelial cell medium (CoEpiCM, SCR) as a basal medium was used as a medium. To investigate the effect on release of exosomes, 10 μM Y-27632 (ROCK inhibitor) (Wako), 0.5 μM A-83-01 (ALK5/7/4 selective inhibitor) (Wako), and 3 μM CHIR99021 (GSK-3 inhibitor) (Axon Medchem, Reston, VA) were used. Cells were completely dissolved in a water bath at 37° C. and seeded on 10 mL of the complete medium in a 10-cm dish coated with poly-L-lysine (poly-[…] 2 μg/cm^2, SCR) at 2.5×10^5 cells/dish. On the following day, the medium was replaced with a fresh complete medium. The medium was replaced with a complete medium every 3 or 4 days until 70% confluency was reached and then every other day while 70% to 90% confluency was reached. Cells reaching 90% confluency were removed using a 0.05% trypsin/EDTA solution (T/E, SCR) and seeded onto a 12-well plate (Fisher-brand 12-well tissue culture plate with a flat bottom) at 2×10^4 cells/well. Twenty four hours later, the medium was replaced with a complete medium containing or not containing Y-27632 (10 μM), and thereafter the medium was replaced every other day until 90% confluency was reached. When 90% confluency was reached, the cells were subcultured again, and the above-described procedures were continued for 72 days.

[2] = test system: Primary human colonic epithelial cells (HCoEpiC); test: ExoScreen assay of exosome markers CD9 and CD63 in culture supernatant
Method: (§1) Cells were completely dissolved in a water bath at 37° C. and seeded on 10 mL of the complete medium in a 10-cm dish coated with poly-L-lysine (poly-[…] 2 μg/cm^2, SCR) at 2.5×10^5 cells/dish. On the following day, the medium was replaced with a fresh complete medium. The medium was replaced with a complete medium every 3 or 4 days until 70% confluency was reached and then every other day while 70% to 90% confluency was reached. Cells reaching 90% confluency were removed using a 0.05% trypsin/EDTA solution (T/E, SCR) and seeded onto a 12-well plate (Fisher-brand 12-well tissue culture plate with a flat bottom) at 2×10^4 cells/well. Twenty four hours later, the medium was replaced with a complete medium containing or not containing Y-27632 (10 μM), and thereafter the medium was replaced every other day until 90% confluency was reached. When 90% confluency was reached, the cells were subcultured again, and the above-described procedures were continued for 72 days. The culture supernatant in the culture was recovered, and the particle diameter and the particle number were measured using a nanoparticle analysis system NanoSight (NS300, Malvern Panalytical Ltd.). Then, the signal intensities of exosome markers, CD9 and CD63, in the recovered culture supernatant were measured by an ExoScreen assay.

[3] = test system: Primary human colonic epithelial cells (HCoEpiC); test: Particle diameter and particle number in culture supernatant by NanoSight
Method: as §1

C[C@@H](N)[C@H]1CC[C@H](C(=O)Nc2ccncc2)CC1 [Y-27632, (1R,4r)-4-((R)-1-aminoethyl)-N-(pyridin-4-yl)cyclohexanecarboxamide]
cell morphology during long-term culture [1]: the morphology was unchanged
cell morphology during long-term culture ([1]; listed as Y): no morphological change was observed
continued growth / long-term culture of colorectal epithelial cells (number of cells) [1]: continued growth over the longest period; also recorded: allowed long-term culture of colorectal epithelial cells
continued growth / long-term culture of colorectal epithelial cells (number of cells) ([1]; listed as Y): Long-term culture was enabled
exosomes detected using CD9 and CD63 markers (signal intensity) ([2]; culture supernatant of HCoEpiC cultured in the presence vs absence of Y-27632): more exosomes were detected
decrease of CD9(+) exosomes after repeated passages ([2]; in the presence of Y-27632, fraction decreased): about ⅓
particle number concentration in the medium ([3]; Day 72 of culture, presence vs absence of Y-27632): higher in the absence of Y-27632
particle diameter of released vesicles ([3]; culture supernatants at Day 28, Day 35, Day 72, Y(+) vs Y(−)): unchanged

Source: patent US20250027050A1, “LONG-TERM CULTURE OF COLORECTAL EPITHELIAL CELLS” (ISM CO., LTD., priority 2021, published 2025)
